Results on three compounds are retold here after patent US20050175567A1, “Hair care compositions containing phenolic styling agents” (priority 2002, published 2005).

The experiment can be described thus: Curl dropout of treated hair curls in high humidity chamber. The following applies: 1% by weight solution in water; curls soaked 1 hour, rinsed, dried 30 minutes; 90% RH, 30° C., fan agitation, 1 minute. On the procedure:
Three solutions were formulated each containing 1% by weight of either 2,5 dihydroxybenzoic acid, 3,4 dihydroxybenzoic acid or 3,5 dihydroxybenzoic acid. Hair curls were made up using perming rods and 30 cm length hair.
The curls were placed in the solution for 1 hour, rinsed thoroughly with distilled water and dried for 30 minutes. The hair was removed from the curling rod and the length of the curl measured.
The hair was hung in high humidity environmental chamber (90% RH, 30° C.) with fan agitation for 1 minute and measured again.
`O=C(O)c1ccc(O)c(O)c1` [3,4 dihydroxybenzoic acid]: the Curl dropout % was determined as 29%.
`O=C(O)c1cc(O)ccc1O` [2,5 dihydroxybenzoic acid] returned a Curl dropout % of 17.1%.
Compound `O=C(O)c1cc(O)cc(O)c1` [3,5 dihydroxybenzoic acid] displayed a Curl dropout % of 26%.
